These compounds were tested against T1, 5-HT2A receptor (Homo sapiens, UniProt P28223) (assay: radioligand binding assay for 5-HT2A receptor ([3H]-ketanserin)). Settings: human cortex or recombinant 5-HT2A receptor expressed in CHO-K1 cells, read-out: binding affinity to 5-HT2A serotonin receptor expressed as IC50 value.
T1 construct: expressed in transfected cells; alternatively human cortex tissue
T1 sequence (P28223 whole entry): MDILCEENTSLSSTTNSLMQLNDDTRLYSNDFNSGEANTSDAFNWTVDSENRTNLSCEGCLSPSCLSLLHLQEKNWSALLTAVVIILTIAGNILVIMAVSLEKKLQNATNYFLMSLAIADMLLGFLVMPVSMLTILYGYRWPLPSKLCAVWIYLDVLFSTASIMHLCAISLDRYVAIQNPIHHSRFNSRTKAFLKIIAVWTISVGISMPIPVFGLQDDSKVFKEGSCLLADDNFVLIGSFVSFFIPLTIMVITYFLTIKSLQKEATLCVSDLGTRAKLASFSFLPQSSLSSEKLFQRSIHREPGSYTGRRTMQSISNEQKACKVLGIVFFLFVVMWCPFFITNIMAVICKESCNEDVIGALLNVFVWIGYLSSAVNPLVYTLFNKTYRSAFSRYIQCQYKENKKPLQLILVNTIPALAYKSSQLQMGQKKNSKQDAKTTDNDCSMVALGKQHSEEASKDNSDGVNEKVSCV
Description: (§1) The effect of the compounds of the present invention on the neurochemical steady state was determined by in vitro investigations such as a radionuclide-marked radioligand binding assay for 5-HT2A (Bonhaus D. W. Br. J. Pharmacol. 1995, 115:622; Saucier C. J. Neurochem. 1997, 68:1998) and 5-HT2C receptors (Wolf W. A. J. Neurochem. 1997, 69:1449), in vitro binding assay for the σ1 receptor (Thomson W. and Donn R. Arthritis Res. 2002, 4: 302-306) and by in vivo investigations in a tail suspension test (Vogel H. G. and Vogel W. H. Drug Discovery and Evaluation Pharmacological Assays, Springer 1997, 304), in amphetamine-induced hyperlocomotion in mice (Millan M. J. et al, 1998 J. Pharmacol. Exp. Ther. 287: 167-186), in a forced swim test in mice (Porsolt R. D. et al. Arch. Int. Pharmacodyn. 1977, 229:327-336), in meta-chlorophenyl piperazine (m-CPP) test on rats (Drug Dev. Res. 1989, 18:119-144), and in apomorphine, tryptamine, norepinephrine (ATN) test in rats (Arch. Int. Pharmacodyn. 1977, 227:238-253).
(§2) A small concentration of a radioligand having a great affinity for binding to a receptor was incubated with a tissue sample enriched with a certain receptor (1-5 mg of tissue) in a buffered medium (0.2-5 mL). Recombinant human HT2A and HT2C receptors were expressed in CHO-K1 or COS-7 cells and were also used for competitive binding. During incubation the radioligand bound to the receptor. When a binding balance was achieved, the receptors to which the radioligand was bound were separated from those to which said ligand was not bound, and the radioactivity of the receptor/radioligand complex was measured. The interaction of the tested compounds with receptors was tested in competitive binding experiments. Various concentrations of tested compounds were added to the incubation mixture containing a prepared tissue enriched with corresponding receptors and the radioligand. The radioligand binding was inhibited by the test compounds proportionally to the affinity of a certain compound for the receptor and to the concentration of the compound.
The radioligand used for the determination of binding to 5-HT2A receptor was [^3H]-ketanserin and the tissue used was human cortex or recombinant 5-HT2A receptor expressed in CHO-K1 cells.
`CN(C)CCOCc1n[nH]c2c1-c1ccccc1Oc1ccc(Cl)cc1-2` [[2-(11-chloro-1H-8-oxa-1,2-diaza-dibenzo[e,h]azulen-3-ylmethoxy)-ethyl]-dimethyl-amine] was tested, and the IC50 was < 200 nM.
With `CN(C)CCCOCc1c2c(nn1CCc1ccccc1)-c1ccccc1Sc1ccccc1-2` [dimethyl-[3-(2-phenethyl-2H-8-thia-1,2-diaza-dibenzo[e,h]azulen-3-ylmethoxy)-propyl]-amine] the IC50 was < 200 nM.
For `CN(C)CCCOCc1n[nH]c2c1-c1ccccc1Sc1ccccc1-2` [dimethyl-[3-(11H-8-thia-1,2-diaza-dibenzo[e,h]azulen-3-ylmethoxy)-propyl]-amine], the IC50 was < 200 nM.

Same assay, conditions: human cortex or recombinant 5-HT2A receptor expressed in CHO-K1 cells, read-out: binding affinity to 5-HT2A serotonin receptor, Ki value
In the case of `CN(C)CCOCc1n[nH]c2c1-c1ccccc1Oc1ccc(Cl)cc1-2` [[2-(11-chloro-1H-8-oxa-1,2-diaza-dibenzo[e,h]azulen-3-ylmethoxy)-ethyl]-dimethyl-amine], the Ki is reported as < 100 nM.
With `CN(C)CCCOCc1c2c(nn1CCc1ccccc1)-c1ccccc1Sc1ccccc1-2` [dimethyl-[3-(2-phenethyl-2H-8-thia-1,2-diaza-dibenzo[e,h]azulen-3-ylmethoxy)-propyl]-amine] the Ki was < 100 nM.
`CN(C)CCCOCc1n[nH]c2c1-c1ccccc1Sc1ccccc1-2` [dimethyl-[3-(11H-8-thia-1,2-diaza-dibenzo[e,h]azulen-3-ylmethoxy)-propyl]-amine] was tested, and the Ki was < 100 nM.

Each compound was assayed against T2, 5-HT2C receptor (Homo sapiens, UniProt P28335) (assay: radioligand binding assay for 5-HT2C receptor ([3H]-mesulergine)). Settings: choroid plexus or recombinant 5-HT2C receptor expressed in CHO-K1 cells, read-out: binding affinity to 5-HT2C serotonin receptor expressed as IC50 value.
T2 construct: expressed in transfected cells; alternatively choroid plexus tissue
T2 sequence (P28335 33-458): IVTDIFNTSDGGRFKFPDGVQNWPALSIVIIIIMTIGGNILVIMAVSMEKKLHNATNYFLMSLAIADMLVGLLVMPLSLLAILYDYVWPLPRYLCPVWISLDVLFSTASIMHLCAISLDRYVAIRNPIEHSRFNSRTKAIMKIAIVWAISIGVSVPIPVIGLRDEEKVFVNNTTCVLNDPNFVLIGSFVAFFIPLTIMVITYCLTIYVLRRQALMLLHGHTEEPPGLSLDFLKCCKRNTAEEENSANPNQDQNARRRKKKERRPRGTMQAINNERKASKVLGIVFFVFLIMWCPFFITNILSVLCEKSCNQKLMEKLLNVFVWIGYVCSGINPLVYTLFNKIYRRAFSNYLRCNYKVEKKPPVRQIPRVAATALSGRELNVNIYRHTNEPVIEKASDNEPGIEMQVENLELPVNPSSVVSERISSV
Description: as §1, §2
The radioligand used for the determination of binding to 5-HT2C receptor was [^3H]-mesulergine and the tissue used was choroid plexus or recombinant 5-HT2C receptor expressed in CHO-K1 cells.
For `CN(C)CCOCc1n[nH]c2c1-c1ccccc1Oc1ccc(Cl)cc1-2` [[2-(11-chloro-1H-8-oxa-1,2-diaza-dibenzo[e,h]azulen-3-ylmethoxy)-ethyl]-dimethyl-amine], the IC50 was < 200 nM.
For `CN(C)CCCOCc1c2c(nn1CCc1ccccc1)-c1ccccc1Sc1ccccc1-2` [dimethyl-[3-(2-phenethyl-2H-8-thia-1,2-diaza-dibenzo[e,h]azulen-3-ylmethoxy)-propyl]-amine], the IC50 was < 200 nM.
With `CN(C)CCCOCc1n[nH]c2c1-c1ccccc1Sc1ccccc1-2` [dimethyl-[3-(11H-8-thia-1,2-diaza-dibenzo[e,h]azulen-3-ylmethoxy)-propyl]-amine] the IC50 was < 200 nM.

Same assay, conditions: choroid plexus or recombinant 5-HT2C receptor expressed in CHO-K1 cells, read-out: binding affinity to 5-HT2C serotonin receptor, Ki value
In the case of `CN(C)CCOCc1n[nH]c2c1-c1ccccc1Oc1ccc(Cl)cc1-2` [[2-(11-chloro-1H-8-oxa-1,2-diaza-dibenzo[e,h]azulen-3-ylmethoxy)-ethyl]-dimethyl-amine], the Ki is reported as < 100 nM.
In the case of `CN(C)CCCOCc1c2c(nn1CCc1ccccc1)-c1ccccc1Sc1ccccc1-2` [dimethyl-[3-(2-phenethyl-2H-8-thia-1,2-diaza-dibenzo[e,h]azulen-3-ylmethoxy)-propyl]-amine], the Ki is reported as < 100 nM.
For `CN(C)CCCOCc1n[nH]c2c1-c1ccccc1Sc1ccccc1-2` [dimethyl-[3-(11H-8-thia-1,2-diaza-dibenzo[e,h]azulen-3-ylmethoxy)-propyl]-amine], the Ki was < 100 nM.

From patent US20070173492A1, “1,2-Diaza-dibenzo[e,h]azulenes for the treatment of central nervous system diseases and disorders” (Pliva-Istrazivacki Institut d.o.o., priority 2003, published 2007)
